Assay [1] concerns the target T1, LHRH rat pituitary receptor (Rattus norvegicus, UniProt P30969).
T1 construct: from tissue; host or cells: rat pituitary
T1 sequence (P30969 1-327): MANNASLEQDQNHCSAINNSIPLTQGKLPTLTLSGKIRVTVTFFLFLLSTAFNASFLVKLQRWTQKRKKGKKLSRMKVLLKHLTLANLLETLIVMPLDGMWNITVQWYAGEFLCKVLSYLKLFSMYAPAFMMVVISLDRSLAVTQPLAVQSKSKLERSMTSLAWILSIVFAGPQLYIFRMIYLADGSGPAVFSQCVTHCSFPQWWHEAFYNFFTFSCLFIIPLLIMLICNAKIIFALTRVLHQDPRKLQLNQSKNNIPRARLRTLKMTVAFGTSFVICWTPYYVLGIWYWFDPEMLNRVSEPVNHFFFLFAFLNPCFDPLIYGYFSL
The assay can be described thus: LHRH rat pituitary receptor binding (pKI). The following applies: negative logarithm of the equilibrium dissociation constants; for receptor binding affinity (pKI): Table 1; for Ki: Table 1, read-out: receptor binding affinity (pKI) (converted). The protocol:
(§1) Representative compounds of the present invention were evaluated in in vitro tests for LHRH rat pituitary receptor binding (pKI) and for LH inhibition from rat pituitary cells for antagonist potency (pA2). The tests employed the methods detailed in F. Haviv, et al. J. Med. Chem., 32: 2340-2344 (1989). The receptor binding affinity (pKI) is the negative logarithm of the equilibrium dissociation constants.

The target in another assay is T2, rat pituitary cells (Rattus norvegicus, UniProt P30969).
T2 construct: endogenous in cells; host or cells: rat pituitary cells
T2 sequence (P30969 1-327): T1 sequence (P30969 1-327)
The assay can be described thus: LH inhibition from rat pituitary cells, antagonist potency (pA2). The format is cell-based. The note with it: negative log of antagonist concentration shifting the leuprolide response curve to two-fold higher concentration, Table 2. The protocol:
as §1
The pA2 value is the negative logarithm of the concentration of antagonist which shifts the response curve produced by the agonist leuprolide to two-fold higher concentration. Leuprolide is the LHRH agonist having the structure pyro-Glu^1 -His^2 -Trp^3 -Ser^4 -Tyr^5 -D-Leu^6 -Leu^7 -Arg^8 -Pro^9 -NHEt and is disclosed and claimed in U.S. Pat. No. 4,005,063. Typically pA2 values of 7.0 or greater are indicative of good LHRH antagonist potency.

Structures are written as SMILES.

The pA2 is a measure of antagonist potency on a negative log scale. Take `CCCN(C)[C@H]1C[C@@H](C)O[C@@H](O[C@@H]2[C@@H](C)[C@H](O[C@H]3C[C@@](C)(OC)[C@@H](O)[C@H](C)O3)[C@@H](C)C(=O)O[C@H](CC)[C@@]3(C)OC(=O)N(CCc4ccc(Cl)c(Cl)c4)[C@@H]3[C@@H](C)C(=O)[C@H](C)C[C@@]2(C)OC)[C@@H]1O` [Example 3, 3'-N-Desmethyl-3'-N-n-propyl-11-deoxy-11-[carboxy-(3,4-dichlorophenethylamino)]-6-O-methyl-erythromycin A 11,12-(cyclic carbamate)]: the “receptor binding affinity (pKI)” value in assay [1] was determined as 9.13. The pA2 at rat pituitary cells is reported as 8.60.
Usually Kb stands for the affinity of an antagonist, worked out from how it opposes an agonist. In the case of `CCCN(C)[C@H]1C[C@@H](C)O[C@@H](O[C@@H]2[C@@H](C)[C@H](O[C@H]3C[C@@](C)(OC)[C@@H](O)[C@H](C)O3)[C@@H](C)C(=O)O[C@H](CC)[C@@]3(C)OC(=O)N(CCc4ccc(F)c(F)c4)[C@@H]3[C@@H](C)C(=O)[C@H](C)C[C@@]2(C)OC)[C@@H]1O` [Example 32, 3'-N-Desmethyl-3'-N-n-propyl-11-deoxy-11-[carboxy-(3,4-difluorophenethylamino)]-6-O-methyl-erythromycin A 11,12-(cyclic carbamate)], the Ki in assay [1] was 0.0832 nM. The antagonist equilibrium constant (Kb) on rat pituitary cells is 26.3 nM.
For `CC[C@H]1OC(=O)[C@H](C)[C@@H](O[C@H]2C[C@@](C)(OC)[C@@H](O)[C@H](C)O2)[C@H](C)[C@@H](O[C@@H]2O[C@H](C)C[C@H](N(C)C3CCCC3)[C@H]2O)[C@](C)(OC)C[C@@H](C)C(=O)[C@H](C)[C@H]2N(CCc3ccc(F)c(Cl)c3)C(=O)O[C@]12C` [Example 26, 3'-N-Desmethyl-3'-N-cyclopentyl-11-deoxy-11-[carboxy-(3-chloro-4-fluorophenethylamino)]-6-O-methyl-erythromycin A 11,12-(cyclic carbamate)], the Ki in assay [1] was 1.48 nM. Also, on rat pituitary cells, the Kb is 2.19 nM.
Turning to `CC[C@H]1OC(=O)[C@H](C)[C@@H](O[C@H]2C[C@@](C)(OC)[C@@H](O)[C@H](C)O2)[C@H](C)[C@@H](O[C@@H]2O[C@H](C)C[C@H](N(C)C3CCC3)[C@H]2O)[C@](C)(OC)C[C@@H](C)C(=O)[C@H](C)[C@H]2N(CCc3ccc(F)c(F)c3)C(=O)O[C@]12C` [Example 30, 3'-N-Desmethyl-3'-N-cyclobutyl-11-deoxy-11-[carboxy-(3,4-difluorophenethylamino)]-6-O-methyl-erythromycin A 11,12-(cyclic carbamate)], the Ki in assay [1] was 0.513 nM. On rat pituitary cells, the Kb is 5.25 nM.
Regarding `CC[C@H]1OC(=O)[C@H](C)[C@@H](O[C@H]2C[C@@](C)(OC)[C@@H](O)[C@H](C)O2)[C@H](C)[C@@H](O[C@@H]2O[C@H](C)C[C@H](N(C)C3CCC3)[C@H]2O)[C@](C)(OC)C[C@@H](C)C(=O)[C@H](C)[C@H]2N(CCc3ccc(F)c(Cl)c3)C(=O)O[C@]12C` [Example 27, 3'-N-Desmethyl-3'-N-cyclobutyl-11-deoxy-11-[carboxy-(3-chloro-4-fluorophenethylamino)]-6-O-methyl-erythromycin A 11,12-(cyclic carbamate)], the Ki in assay [1] is 1.55 nM. For the same compound, the Kb at rat pituitary cells is 3.8 nM.
The like results for `CC[C@H]1OC(=O)[C@H](C)[C@@H](O[C@H]2C[C@@](C)(OC)[C@@H](O)[C@H](C)O2)[C@H](C)[C@@H](O[C@@H]2O[C@H](C)C[C@H](N(C)C3CCCC3)[C@H]2O)[C@](C)(OC)C[C@@H](C)C(=O)[C@H](C)[C@H]2N(CCc3ccc(F)c(F)c3)C(=O)O[C@]12C` [Example 31, 3'-N-Desmethyl-3'-N-cyclopentyl-11-deoxy-11-[carboxy-(3,4-difluorophenethylamino)]-6-O-methyl-erythromycin A 11,12-(cyclic carbamate)] were, in that order, 0.269 nM and 5.75 nM.
Turning to `CC[C@H]1OC(=O)[C@H](C)[C@@H](O[C@H]2C[C@@](C)(OC)[C@@H](O)[C@H](C)O2)[C@H](C)[C@@H](O[C@@H]2O[C@H](C)C[C@H](N(C)C3CCC3)[C@H]2O)[C@](C)(OC)C[C@@H](C)C(=O)[C@H](C)[C@H]2N(CCc3ccc(Cl)cc3)C(=O)O[C@]12C` [Example 20], the “receptor binding affinity (pKI)” value in assay [1] was determined as 8.49. Also, the pA2 at rat pituitary cells turned out to be 7.53.
`CC[C@H]1OC(=O)[C@H](C)[C@@H](O[C@H]2C[C@@](C)(OC)[C@@H](O)[C@H](C)O2)[C@H](C)[C@@H](O[C@@H]2O[C@H](C)C[C@H](N(C)CC)[C@H]2O)[C@](C)(OC)C[C@@H](C)C(=O)[C@H](C)[C@H]2N(CCc3ccc(Cl)cc3)C(=O)O[C@]12C` [Example 21, 3'-N-Desmethyl-3'-N-ethyl-11-deoxy-11-[carboxy-(4-chlorophenethylamino)]-6-O-methyl-erythromycin A 11,12-(cyclic carbamate)]: the Ki in assay [1] was 6.17 nM. Also, the Kb at rat pituitary cells was 55 nM.
As to `CC[C@H]1OC(=O)[C@H](C)[C@@H](O[C@H]2C[C@@](C)(OC)[C@@H](O)[C@H](C)O2)[C@H](C)[C@@H](O[C@@H]2O[C@H](C)C[C@H](N(C)C3CCCC3)[C@H]2O)[C@](C)(OC)C[C@@H](C)C(=O)[C@H](C)[C@H]2N(CCc3ccc(Cl)cc3)C(=O)O[C@]12C` [Example 23, 3'-N-Desmethyl-3'-N-cyclopentyl-11-deoxy-11-[carboxy-(4-chlorophenethylamino)]-6-O-methyl-erythromycin A 11,12-(cyclic carbamate)], the Ki in assay [1] was 6.76 nM. For the same compound, the Kb at rat pituitary cells is 50.1 nM.
Turning to `CC[C@H]1OC(=O)[C@H](C)[C@@H](O[C@H]2C[C@@](C)(OC)[C@@H](O)[C@H](C)O2)[C@H](C)[C@@H](O[C@@H]2O[C@H](C)C[C@H](N(C)CC3CC3)[C@H]2O)[C@](C)(OC)C[C@@H](C)C(=O)[C@H](C)[C@H]2N(CCc3ccc(F)c(F)c3)C(=O)O[C@]12C` [Example 33, 3'-N-Desmethyl-3'-N-cyclopropylmethyl-11-deoxy-11-[carboxy-(3,4-difluorophenethylamino)]-6-O-methyl-erythromycin A 11,12-(cyclic carbamate)], in assay [1], the Ki is 0.676 nM. Further, at rat pituitary cells, the antagonist equilibrium constant (Kb) is 3.98 nM.
Turning to `CC[C@H]1OC(=O)[C@H](C)[C@@H](O[C@H]2C[C@@](C)(OC)[C@@H](O)[C@H](C)O2)[C@H](C)[C@@H](O[C@@H]2O[C@H](C)C[C@H](N(C)Cc3ccc([N+](=O)[O-])o3)[C@H]2O)[C@](C)(OC)C[C@@H](C)C(=O)[C@H](C)[C@H]2N(CCc3ccc(Cl)c(Cl)c3)C(=O)O[C@]12C` [Example 68, 3'-N-Desmethyl-3'-N-[5-nitro-2-furylmethyl]-11-deoxy-11-[carboxy-(3,4-dichlorophenethylamino)]-6-O-methyl-erythromycin A 11,12-(cyclic carbamate)], in assay [1], the Ki was 5.13 nM.
In the case of `CCCN(C)[C@H]1C[C@@H](C)O[C@@H](O[C@@H]2[C@@H](C)[C@H](O[C@H]3C[C@@](C)(OC)[C@@H](O)[C@H](C)O3)[C@@H](C)C(=O)O[C@H](CC)[C@@]3(C)OC(=O)N(CCc4ccc5c(c4)OCO5)[C@@H]3[C@@H](C)C(=O)[C@H](C)C[C@@]2(C)OC)[C@@H]1O` [Example 14, 3'-N-Desmethyl-3'-N-n-propyl-11-deoxy-11-[carboxy-(3,4-dioxolanophenethylamino)]-6-O-methyl-erythromycin A 11,12-(cyclic carbamate)], the Ki in assay [1] is 1.78 nM.
Still for that read-out and setting: under `CC[C@H]1OC(=O)[C@H](C)[C@@H](O[C@H]2C[C@@](C)(OC)[C@@H](O)[C@H](C)O2)[C@H](C)[C@@H](O[C@@H]2O[C@H](C)C[C@H](N(C)Cc3ccncc3)[C@H]2O)[C@](C)(OC)C[C@@H](C)C(=O)[C@H](C)[C@H]2N(CCc3ccc(Cl)c(Cl)c3)C(=O)O[C@]12C` [Example 92, 3'-N-Desmethyl-3'-N-(4-pyridylmethyl)-11-deoxy-11-[carboxy-(3,4-dichlorophenethylamino)]-6-O-methyl-erythromycin A 11,12-(cyclic carbamate)] stands 6.31 nM; under `CC[C@H]1OC(=O)[C@H](C)[C@@H](O[C@H]2C[C@@](C)(OC)[C@@H](O)[C@H](C)O2)[C@H](C)[C@@H](O[C@@H]2O[C@H](C)C[C@H](N(C)CCCc3ccc(C)cn3)[C@H]2O)[C@](C)(OC)C[C@@H](C)C(=O)[C@H](C)[C@H]2N(CCc3ccc(F)c(Cl)c3)C(=O)O[C@]12C` [Example 88, 3'-N-Desmethyl-3'-N-[3-(5-methyl-2-pyridyl)propyl]-11-deoxy-11[carboxy-(3-chloro-4-fluorophenethylamino)]-6-O-methyl-erythromycin A 11,12-(cyclic carbamate)], 2.09 nM; under `CCC(C)N(C)[C@H]1C[C@@H](C)O[C@@H](O[C@@H]2[C@@H](C)[C@H](O[C@H]3C[C@@](C)(OC)[C@@H](O)[C@H](C)O3)[C@@H](C)C(=O)O[C@H](CC)[C@@]3(C)OC(=O)N(CCc4ccc(Cl)cc4)[C@@H]3[C@@H](C)C(=O)[C@H](C)C[C@@]2(C)OC)[C@@H]1O` (stereo partly shown) [Example 35, 3'-N-Desmethyl-3'-N-(2-butyl)-11-deoxy-11-[carboxy-(4-chlorophenethylamino)]-6-O-methyl-erythromycin A 11,12-(cyclic carbamate)], 7.59 nM.
